Assays:
human PPARγ1 = target: T1, human PPARγ1 (Homo sapiens, UniProt P37231); assay: Human PPARγ1 antagonist assay (luciferase reporter in PPARγ:RXRα:4ERPP/CHO-K1 cells); assay type: cell-based; conditions: test compound 10^−6 M, 10 nM compound A as stimulant, luciferase activity, 24 hrs, read-out: Inhibitory rate (%)
T1 construct: expressed in transfected cells; host or cells: CHO-K1 cells stably transfected with pVgRXR2-hPPARγ and reporter plasmid pGL3-4ERPP-TK neo
T1 sequence (P37231 1-477 isoform P37231-2): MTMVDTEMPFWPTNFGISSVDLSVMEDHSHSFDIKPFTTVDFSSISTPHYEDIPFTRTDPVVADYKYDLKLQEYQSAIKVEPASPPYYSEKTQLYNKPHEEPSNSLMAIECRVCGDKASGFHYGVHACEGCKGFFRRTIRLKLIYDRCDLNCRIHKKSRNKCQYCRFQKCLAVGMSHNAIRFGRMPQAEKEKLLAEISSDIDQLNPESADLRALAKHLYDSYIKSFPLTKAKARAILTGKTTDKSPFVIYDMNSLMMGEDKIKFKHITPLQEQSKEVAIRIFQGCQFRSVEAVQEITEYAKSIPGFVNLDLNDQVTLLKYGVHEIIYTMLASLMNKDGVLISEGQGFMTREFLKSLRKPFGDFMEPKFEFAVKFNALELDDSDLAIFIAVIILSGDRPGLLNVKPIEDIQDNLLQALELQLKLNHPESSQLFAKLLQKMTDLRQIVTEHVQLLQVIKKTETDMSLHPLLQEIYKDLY
T1 sequence (P19793 1-462 partner): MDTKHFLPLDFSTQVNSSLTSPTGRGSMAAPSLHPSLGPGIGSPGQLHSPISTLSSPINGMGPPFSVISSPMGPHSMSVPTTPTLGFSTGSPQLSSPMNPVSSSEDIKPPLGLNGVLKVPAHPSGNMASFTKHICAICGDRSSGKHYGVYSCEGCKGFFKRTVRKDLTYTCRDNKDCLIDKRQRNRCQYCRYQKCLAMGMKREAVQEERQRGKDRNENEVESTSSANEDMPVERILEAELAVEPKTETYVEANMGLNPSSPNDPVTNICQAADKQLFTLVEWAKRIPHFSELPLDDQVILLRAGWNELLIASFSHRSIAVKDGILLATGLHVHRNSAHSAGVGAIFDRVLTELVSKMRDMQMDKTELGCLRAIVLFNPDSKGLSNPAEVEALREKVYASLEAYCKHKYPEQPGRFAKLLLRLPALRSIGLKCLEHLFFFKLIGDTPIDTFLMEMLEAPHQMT
Protocol: PPARγ:RXRα:4ERPP/CHO-K1 cells (obtained in Reference Example 5a) cultured in Ham's F-12 medium (GIBCO, Inc.) supplemented with 10% fetal bovine serum (TRACE SCIENTIFIC, Ltd.) were seeded in a well of a 96 well white plate at 2×10^4 cells/well and cultured under 37° C. 5% CO2 conditions for 24 hrs. After removal of the medium, Ham's F-12 medium (GIBCO) containing 60 μl of 0.1% BSA (not containing fatty acid) (Wako Pure Chemical Industries, Ltd.), 20 μl of 10^−5M or 10^−6 M test compound and 20 μl of compound A having a final concentration of 10 nM as a stimulant were added, and the cells were cultured under 37° C. 5% CO2 conditions for 24 hrs. After removal of the medium, 40 μl of Pickagene LT7.5 (Wako Pure Chemical Industries, Ltd.) 2-fold diluted with HBSS (HANKS' BALANCED SALT SOLUTION) (BIO WHITTAKER Inc.) was added. After stirring, luciferase activity was measured using 1420 ARVO Multilabel Counter (Wallac, Inc.). In addition, a test similar to the above was conducted for the non-use of the aforementioned test compound alone and for the non-use of the aforementioned test compound and compound A to determine the luciferase activity.
The human PPARγ1 antagonistic activity of the test compound was evaluated using percentages (% inhibition) wherein the luciferase activity when 10 nM compound A alone was added was 0%, and the luciferase activity when the test compound and compound A were not added was 100%. The concentration of the test compound was 10^−5 M for the compounds of Example 42 and 315 and 10^−6 M for other test compounds.
After a CHO-K1 cell cultured in a cell culture flask (150 cm^2) (produced by Corning Costar Corporation, USA) containing Ham's F-12 medium (produced by Life Technologies, Inc., USA) supplemented with 10% fetal bovine serum (produced by Life Technologies, Inc., USA) was detached by treating with 0.5 g/L trypsin-0.2 g/L EDTA (ethylenediaminetetraacetic acid) (produced by Life Technologies, Inc., USA), the cell was washed with PBS (phosphate-buffered saline) (produced by Life Technologies, Inc., USA), centrifuged (1000 rpm, 5 minutes), and then suspended in PBS. Subsequently, the DNA was introduced into the cells under the conditions shown below using GENE PULSER (produced by Bio-Rad Laboratories, USA).
Namely, to a cuvette having a 0.4 cm gap, added were 8×10^6 cells and 10 μg of plasmid pVgRXR2-hPPARγ obtained in Reference Example 4a and 10 μg of reporter plasmid pGL3-4ERPP-TK neo obtained in Reference Example 2a, which was subjected to electroporation at the voltage of 0.25 kV under the capacitance of 960 μF. Subsequently, the cell was transferred into a Ham's F-12 medium containing 10% fetal bovine serum and cultured for 24 hours and then the cells were detached again and centrifuged, and then suspended in HAM F12 medium containing 10% fetal bovine serum supplemented with 500 μg/ml of GENETICIN (produced by Life Technologies, Inc., USA) and 250 μg/ml of ZEOCIN (produced by Invitrogen, USA). The obtained suspension was diluted to the density of 10^4 cells/ml and inoculated to a 96-well plate (produced by Corning Costar Corporation, USA), which was cultured in a CO2 gas incubator at 37° C., whereby obtaining a GENETICIN- and ZEOCIN-resistant transformant. Subsequently, after the transformant cell line thus obtained was cultured in a 24-well plate (produced by Corning Costar Corporation, USA), selected was a cell line in which the luciferase was expressed and induced, i.e., PPARγ:RXRα:4ERPP/CHO-K1 cell by the addition of 10 μM pioglitazone hydrochloride.

inhibition at 1 µM (human PPARγ1) [%] | melting point [°C] | SMILES
111 | – | COc1cc(COc2nn(-c3ccccc3)cc2/C=C/c2csc(C(C)(C)C)n2)ccc1OCc1nc(-c2ccc(CC(=O)O)cc2)oc1C [Example 359, {4-[4-({4-[({4-[(E)-2-(2-tert-butyl-1,3-thiazol-4-yl)ethenyl]-1-phenyl-1H-pyrazol-3-yl}oxy)methyl]-2-methoxyphenoxy}methyl)-5-methyl-1,3-oxazol-2-yl]phenyl}acetic acid]
114 | – | COc1cc(COc2nn(-c3ccccc3)cc2/C=C/c2coc(C(C)(C)C)n2)ccc1OCc1nc(-c2ccc(CC(=O)O)cc2)oc1C [Example 371, {4-[4-({4-[({4-[(E)-2-(2-tert-butyl-1,3-oxazol-4-yl)ethenyl]-1-phenyl-1H-pyrazol-3-yl}oxy)methyl]-2-methoxyphenoxy}methyl)-5-methyl-1,3-oxazol-2-yl]phenyl}acetic acid]
112 | 144 to 147 | CCc1nc(/C=C/c2cn(-c3ccccc3)nc2OCc2ccc(OCc3nc(-c4cccc(-c5nnn[nH]5)c4)oc3C)c(OC)c2)cs1 [Example 373, 5-{3-[4-({4-[({4-[(E)-2-(2-ethyl-1,3-thiazol-4-yl)ethenyl]-1-phenyl-1H-pyrazol-3-yl}oxy)methyl]-2-methoxyphenoxy}methyl)-5-methyl-1,3-oxazol-2-yl]phenyl}-1H-tetrazole]
